The record followed here is US20220073536A1 (Rigel Pharmaceuticals, Inc., priority 2003, published 2022).

Some results are limits rather than exact numbers.

Experiment [1] relates to cultured human mast cells (CHMC). The experiment is described as follows: CHMC low cell density ionomycin activation: tryptase assay. It counts as cell-based. Conditions: low cell density CHMC, tryptase release, 3 point, read-out: LD Tryptase, CHMC, Iono, 3 pt.
Experiment [2] has the same test system. The experiment is described as follows: CHMC low cell density IgE activation: tryptase assay. Particulars: low cell density CHMC, IgE activation, tryptase release. Format: cell-based. In a few lines:
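Tryptase release was read from supernatant with a fluorogenic substrate (30 min, room temperature) after anti-IgE challenge of cultured human mast cells (1000–1500 cells/well, low density) for 30 minutes at 37° C.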

Setting [3] is: Homo sapiens, Mast cell, 3 point, read-out: LD Tryptase, CHMC, IgE, 3 pt.
[4] abbreviates: 3 point, read-out: LD Tryptase, CHMC, IgE, 3 pt.
Setting [5] is: 8 point, read-out: LD Tryptase, CHMC, IgE, 8 pt.
Setting [6] is: Homo sapiens, Mast cell, 8 point, read-out: LD Tryptase, CHMC, IgE, 8 pt.

For `Cc1cc(N(C)c2nc(Nc3ccc(-c4ncco4)cc3)ncc2F)cc(C)c1Cl` [Compound 596], the IC50 in experiment [1] (Homo sapiens, Mast cell) is above 10 µM; in experiment [2] (setting [3]) it was above 10 µM.
Take `Cc1cc(N(C)c2nc(Nc3cccc(-c4cnco4)c3)ncc2F)cc(C)c1Cl` [Compound 597]: the IC50 in experiment [1] (Homo sapiens, Mast cell) was above 10 µM; in experiment [2] (setting [3]) it was below 10 µM.
The like results for `Cc1cc(N(C)c2nc(Nc3ccc(-c4cnco4)cc3)ncc2F)cc(C)c1Cl` [Compound 598] were, in that order, above 10 µM and below 10 µM.
On to `Cc1cc(N(C)c2nc(Nc3ccc4cc[nH]c4c3)ncc2F)cc(C)c1Cl` [Compound 599], for which the IC50 in experiment [1] (Homo sapiens, Mast cell) was above 10 µM; in experiment [2] (setting [3]), below 10 µM.
As for `CNC(=O)COc1ccc(Nc2nc(Nc3cc(C)cc(C)c3)ncc2F)cc1Cl` [Compound 600, N4-[3-Chloro-4-(N-methylamino)carbonylmethyleneoxyphenyl]-N2-(3,5-dimethylphenyl)-5-fluoro-2,4-pyrimidinediamine], the IC50 in experiment [1] is above 10 µM; in experiment [2] (setting [4]) it was below 10 µM; in experiment [2] (setting [5]), below 10 µM.
Regarding `CNC(=O)COc1ccc(Nc2nc(Nc3cc(OC)cc(OC)c3)ncc2F)cc1Cl` [Compound 601, N4-[3-Chloro-4-(N-methylamino)carbonylmethyleneoxyphenyl]-N2-(3,5-dimethoxylphenyl)-5-fluoro-2,4-pyrimidinediamine], the IC50 in experiment [1] is above 10 µM; in experiment [2] (setting [4]), below 10 µM; in experiment [2] (setting [5]), below 10 µM.
As to `CNC(=O)COc1ccc(Nc2nc(Nc3ccc(OC)c(Cl)c3)ncc2F)cc1Cl` [Compound 602, N2-(3-Chloro-4-methoxyphenyl)-N4-[3-chloro-4-(N-methylamino)carbonylmethyleneoxyphenyl]-5-fluoro-2,4-pyrimidinediamine], the IC50 was above 10 µM in experiment [1], below 10 µM in experiment [2] (setting [4]) and below 10 µM in experiment [2] (setting [5]).
With `CNC(=O)COc1ccc(Nc2nc(Nc3cc(C)c(Cl)c(C)c3)ncc2F)cc1Cl` [Compound 603, N2-(4-Chloro-3,5-dimethylphenyl)-N4-[3-chloro-4-(N-methylamino)carbonylmethyleneoxyphenyl]-5-fluoro-2,4-pyrimidinediamine], the IC50 in experiment [1] is above 10 µM; in experiment [2] (setting [4]) it was below 10 µM; in experiment [2] (setting [5]) it was above 10 µM.
As for `Cc1cc(N(C)c2nc(Nc3ccc(-c4cocn4)cc3)ncc2F)cc(C)c1Cl` [Compound 604], the IC50 in experiment [1] (Homo sapiens, Mast cell) is above 10 µM; in experiment [2] (setting [3]), below 10 µM.
In the case of `CNC(=O)COc1ccc(Nc2nc(Nc3ccc4cc[nH]c4c3)ncc2F)cc1Cl` [Compound 605, N4-[3-Chloro-4-(N-methylamino)carbonylmethyleneoxyphenyl]-5-fluoro-N2-(indol-6-yl)-2,4-pyrimidinediamine], the results for the IC50 in experiment [1], in experiment [2] (setting [4]) and in experiment [2] (setting [5]) were above 10 µM, below 10 µM and below 10 µM, respectively.
For the molecule `COc1cc(N(C)c2nc(Nc3ccc(-c4cocn4)cc3)ncc2F)ccc1Cl` [Compound 606, N4-(4-Chloro-3-methoxyphenyl)-5-fluoro-N4-methyl-N2-[4-(oxazol-4-yl)phenyl]-2,4-pyrimidinediamine], the IC50 was below 10 µM in experiment [1] (Homo sapiens, Mast cell); below 10 µM in experiment [2] (setting [3]); below 10 µM in experiment [2] (setting [6]).
On to `CNC(=O)c1cc(Nc2ncc(F)c(Nc3ccc(Cl)c(OC)c3)n2)ccc1Cl` [Compound 607, N4-(4-Chloro-3-methoxyphenyl)-N2-[4-chloro-3-(N-methylamino)carbonylphenyl]-5-fluoro-2,4-pyrimidinediamine], for which the IC50 is above 10 µM in experiment [1] (Homo sapiens, Mast cell); below 10 µM in experiment [2] (setting [3]); below 10 µM in experiment [2] (setting [6]).
`CNC(=O)COc1ccc(Nc2nc(Nc3ccc(Cl)c(C(=O)NC)c3)ncc2F)cc1Cl` [Compound 608, N4-[3-Chloro-4-(N-methylamino)carbonylmethyleneoxyphenyl]-N2-[4-chloro-3-(N-methylamino)carbonylphenyl]-5-fluoro-2,4-pyrimidinediamine]: the IC50 was above 10 µM in experiment [1] and below 10 µM in experiment [2] (setting [4]).
For `CNC(=O)c1cc(Nc2ncc(F)c(Nc3ccc(Cl)c(C(F)(F)F)c3)n2)ccc1Cl` [Compound 609], the IC50 was above 10 µM in experiment [1] (Homo sapiens, Mast cell); below 10 µM in experiment [2] (setting [3]); below 10 µM in experiment [2] (setting [6]).
Take `CNC(=O)c1cc(Nc2ncc(F)c(N(C)c3cc(C)c(Cl)c(C)c3)n2)ccc1Cl` [Compound 610, N4-(4-Chloro-3,5-dimethylphenyl)-N2-[4-chloro-3-(N-methylamino)carbonylphenyl]-5-fluoro-N4-methyl-2,4-pyrimidinediamine]: the IC50 in experiment [1] (Homo sapiens, Mast cell) was above 10 µM; in experiment [2] (setting [3]), above 10 µM.
Turning to `CNC(=O)c1ccc(Nc2ncc(F)c(Nc3ccc(Cl)c(OC)c3)n2)cc1Cl` [Compound 611, N4-(4-Chloro-3-methoxyphenyl)-N2-[3-chloro-4-(N-methylamino)carbonylphenyl]-5-fluoro-2,4-pyrimidinediamine], the IC50 was above 10 µM in experiment [1] (Homo sapiens, Mast cell); below 10 µM in experiment [2] (setting [3]); below 10 µM in experiment [2] (setting [6]).
For the molecule `CNC(=O)c1ccc(Nc2ncc(F)c(Nc3ccc(Cl)c(C(F)(F)F)c3)n2)cc1Cl` [Compound 612, N2-[3-Chloro-4-(N-methylamino)carbonylphenyl]-N4-(4-chloro-3-trifluoromethylphenyl)-5-fluoro-2,4-pyrimidinediamine], the IC50 in experiment [1] (Homo sapiens, Mast cell) is above 10 µM; in experiment [2] (setting [3]), below 10 µM; in experiment [2] (setting [6]) it was below 10 µM.
`CNC(=O)c1ccc(Nc2ncc(F)c(N(C)c3cc(C)c(Cl)c(C)c3)n2)cc1Cl` [Compound 613, N4-(4-Chloro-3,5-dimethylphenyl)-N2-[3-chloro-4-(N-methylamino)carbonylphenyl]-5-fluoro-N4-methyl-2,4-pyrimidinediamine]: the IC50 is above 10 µM in experiment [1] (Homo sapiens, Mast cell) and below 10 µM in experiment [2] (setting [3]).
Take `COC(=O)COc1ccc(Nc2nc(Nc3cc(C)cc(C)c3)ncc2F)cc1Cl` [Compound 614, N4-[3-Chloro-4-(methoxycarbonyl)methyleneoxyphenyl]-N2-(3,5-dimethylphenyl)-5-fluoro-2,4-pyrimidinediamine]: the IC50 in experiment [1], in experiment [2] (setting [4]) and in experiment [2] (setting [5]) was below 10 µM each time.
Turning to `COC(=O)COc1ccc(Nc2nc(Nc3cc(OC)cc(OC)c3)ncc2F)cc1Cl` [Compound 615, N4-[3-Chloro-4-(methoxycarbonyl)methyleneoxyphenyl]-N2-(3,5-dimethoxyphenyl)-5-fluoro-2,4-pyrimidinediamine], the IC50 in experiment [1], in experiment [2] (setting [4]) and in experiment [2] (setting [5]) was below 10 µM each time.
On to `COC(=O)COc1ccc(Nc2nc(Nc3ccc(OC)c(Cl)c3)ncc2F)cc1Cl` [Compound 616, N4-[3-Chloro-4-(methoxycarbonyl)methyleneoxyphenyl]-N2-(3-chloro-4-methoxyphenyl)-5-fluoro-2,4-pyrimidinediamine], for which the IC50 in experiment [1], in experiment [2] (setting [4]) and in experiment [2] (setting [5]) was below 10 µM throughout.
As to `COC(=O)COc1ccc(Nc2nc(Nc3cc(C)c(Cl)c(C)c3)ncc2F)cc1Cl` [Compound 617, N2-(4-Chloro-3,5-dimethylphenyl)-N4-[3-chloro-4-(methoxycarbonyl)methyleneoxyphenyl]-5-fluoro-2,4-pyrimidinediamine], the IC50 in experiment [1], in experiment [2] (setting [4]) and in experiment [2] (setting [5]) was below 10 µM in each case.
